Patent publication US6770673B1, “Therapeutic uses of arglabin in combination with other chemotherapy agents” (priority 1997, dated 2004)

Legend:
[1] = system: Breast Cancer RMC-1; assay: Inhibition of tumor growth in implanted tumors; assay type: in vivo, mice and rats; conditions: dose 30 mg/kg
[2] = system: Alveolar Cancer of the liver; assay: Inhibition of tumor growth in implanted tumors; assay type: in vivo, mice and rats
[3] = system: Sarcoma-45; assay: Inhibition of tumor growth in implanted tumors; assay type: in vivo, rats
[4] = system: Sarcoma-45 resistant to 5-fluorouracil; assay: Inhibition of growth of resistant tumour strains; assay type: in vivo, rats
[5] = system: Worker's carcinosarcoma; assay: Inhibition of tumor growth in implanted tumors; assay type: in vivo, mice and rats
[6] = system: Sarcoma-45 resistant to prospidine; assay: Inhibition of growth of resistant tumour strains; assay type: in vivo, rats; conditions: dose 30 mg/kg
[7] = system: M-1 Sarcoma; assay: Inhibition of tumor growth in implanted tumors; assay type: in vivo, mice and rats; conditions: dose 30 mg/kg
[8] = system: Pliss Lymphosarcoma resistant to leucoeffdine; assay: Inhibition of growth of resistant tumour strains; tumor disappearance; assay type: in vivo, rats; conditions: dose 30 mg/kg
[9] = system: Sarcoma-45 resistant to rubidomycin; assay: Inhibition of growth of resistant tumour strains; assay type: in vivo, rats; conditions: dose 30 mg/kg
[10] = system: Pliss lymphosarcoma; assay: Inhibition of tumor growth in implanted tumors; assay type: in vivo, rats
[11] = system: Pliss Lymphosarcoma resistant to rubidomycin; assay: Inhibition of growth of resistant tumour strains; assay type: in vivo, rats; conditions: dose 30 mg/kg
[12] = system: Pliss Lymphosarcoma resistant to prospidine; assay: Inhibition of growth of resistant tumour strains; duration of life and metastasis; assay type: in vivo, rats
[13] = system: Geren's carcinosarcoma; assay: Inhibition of tumor growth in implanted tumors; assay type: in vivo, mice and rats
[14] = system: PC-1; assay: Inhibition of tumor growth in implanted tumors; assay type: in vivo, mice and rats; conditions: dose 30 mg/kg
[15] = system: Leucemia P-388; assay: Implanted leukemia, inhibition / survival; assay type: in vivo, mice and rats; conditions: dose 50 mg/kg

Row | SMILES | Inhibition of Tumour Growth, % - Sarcoma-45 ([3]; dose 30 mg/kg) | Inhibition of Tumour Growth, % - Worker's carcinosarcoma ([5]; dose 30 mg/kg) | Inhibition of Tumour Growth, % - M-1 Sarcoma [7] | Inhibition of Tumour Growth, % - Pliss lymphosarcoma ([10]; dose 30 mg/kg) | Inhibition of Tumour Growth, % - Alveolar Cancer of the liver ([2]; dose 50 mg/kg) | Inhibition of Tumour Growth, % - Sarcoma-45 ([3]; dose 50 mg/kg) | Inhibition of Tumour Strains Growth, % - Resistant Forms - Sarcoma-45 to 5-fluorouracil ([4]; dose 50 mg/kg) | Inhibition of Tumour Growth, % - Worker's carcinosarcoma ([5]; dose 50 mg/kg) | Inhibition of Tumour Growth, % - Geren's carcinosarcoma ([13]; dose 50 mg/kg) | Inhibition of Tumour Growth, % - Pliss lymphosarcoma ([10]; dose 50 mg/kg) | Inhibition of Tumour Growth, % - Leucemia P-388 PALT [15] | other results
1 | C=C1C(=O)OC2C1CCC1(C)OC13CC1OC1(C)C23 (stereo not shown) [Epoxyarglabin (2), 1(10), 3(4)-diepoxy-guai-11(13)-en-6,12-olid] | 88.8% | 36.4% | 78.4% | 72.1% | – | – | – | – | – | – | – | Inhibition of Tumour Growth, % - Breast Cancer RMC-1 [1]: 59.6%; Inhibition of Tumour Growth, % - Alveolar Cancer of the liver ([2]; dose 30 mg/kg): 70.4%; Inhibition of Tumour Strains Growth, % - Resistant Forms - Sarcoma-45 to 5-fluorouracil ([4]; dose 30 mg/kg): 66.0%; Inhibition of Tumour Strains Growth, % - Resistant Forms - Sarcoma-45 to prospidine [6]: 70.4%; Inhibition of Tumour Strains Growth, % - Resistant Forms - Pliss Lymphosarcoma to leucoeffdine [8]: 79.8%; Inhibition of Tumour Strains Growth, % - Resistant Forms - Sarcoma-45 to rubidomycin [9]: 78.6%; Inhibition of Tumour Strains Growth, % - Resistant Forms - Pliss Lymphosarcoma to rubidomycin [11]: 78.0%
2 | CC1=CCC23OC2(C)CCC2C(CN(C)C)C(=O)OC2C13 (stereo not shown) [Dimethylaminoarglabin (14b), dimethylaminoarglabin] | 85.1% | 30.0% | 79.9% | 78.2% | 42.0% | 79.0% | 52.1% | 30.0% | 85.1% | 56.0% | 80.1% | Inhibition of Tumour Strains Growth, % - Resistant Forms - Pliss Lymphosarcoma to prospidine ([12]; dose 30 mg/kg): 52.1%; Inhibition of Tumour Growth, % - PC-1 [14]: 62.1%
3 | CN(C)CC1C(=O)OC2C1CCC1(C)OC13CC1OC1(C)C23.Cl (stereo not shown) [dimethylaminoepoxyarglabin hydrochloride] | – | – | – | – | 29.1% | 32.4% | 13.2% | 51.4% | 15.6% | 47.0% | 31.2% | –
4 | C=C1C(=O)OC2C1CCC1(C)OC13CC(Br)C(C)(Br)C23 (stereo not shown) [Dibromoarglabin (5), 3,4 Dibromoarglabin] | – | – | – | – | 69.0% | 74.2% | 46.3% | 17.1% | 90.0% | 51.0% | 46.9% | –
5 | C=C1C(=O)OC2C1CCC(C)(Cl)C1(O)CC(Cl)C(C)(O)C21 (stereo not shown) [Dichlordihydroxyarglabin (3)] | – | – | – | – | 51.0% | 70.9% | 70.6% | 63.2% | 71.4% | 29.0% | 92.1% | –
6 | C=C1C(=O)OC2C1CCC(C)(O)C1C3OC3C(C)(O)C21 (stereo not drawn) [Anobin (19), 2α,3α-epoxy-4α,10α-dioxy-5,7α(H), 60β(H)-guai-11(13)-en-6,12-olide] | – | – | – | – | – | – | – | – | – | – | – | Inhibition of Tumour Strains Growth, % - Resistant Forms - Sarcoma-45 to 5-fluorouracil ([4]; dose 20-30 mg/kg): 13.2%; Inhibition of Tumour Strains Growth, % - Resistant Forms - Pliss Lymphosarcoma to prospidine ([12]; dose 20-30 mg/kg): 95%; Inhibition of Tumour Growth, % - Geren's carcinosarcoma ([13]; dose 20-30 mg/kg): 85%; Inhibition of Tumour Growth, % - Pliss lymphosarcoma ([10]; dose 20-30 mg/kg): 60.0%
